The values that follow come from patent US4999199A, “Pharmaceutical formulations: liposomes incorporating aromatic polyene antibiotics” (priority 1988, dated 1991).

For data set [1] the following is noted: conventional formulations, parenteral; cited from earlier work.
The test system of data set [2] is human red blood cells (RBC). Description: In vitro toxicity toward red blood cells (hemoglobin release, hemolysis). As to conditions: at 75 Mg/ml (so in the source); 20% human RBC, 45 minutes at 37° C.; hypotonic water = 100% lysis. Here is the method: The samples were incubated for 45 minutes at 37° C., centrifuged at 10,000 xg for 20 minutes, and the hemoglobin content of the supernatant determined by its light absorbance. The release of hemoglobin by a hypotonic water solution was also measured and was considered to represent 100% lysis.

A further data set concerns various fungi. The experiment in a line: In vitro susceptibility experiments, candicidin compared with amphotericin B. The data set is classed as cell-based. Particulars: experiments in various laboratories including those of the present inventors.
The conditions of data set [3]: cited from earlier work.
The subject of the next data set is humans. As to conditions: given orally to humans; cited from earlier work.

Take `C[C@@H]1[C@H](O)[C@@H](C)/C=C/C=C/C=C/C=C/C=C/C=C/C=C/[C@H](O[C@@H]2O[C@H](C)[C@@H](O)[C@H](N)[C@@H]2O)C[C@@H]2O[C@](O)(C[C@@H](O)C[C@@H](O)[C@H](O)CC[C@@H](O)C[C@@H](O)CC(=O)O[C@H]1C)C[C@H](O)[C@H]2C(=O)O` [amphotericin B]: the “persons given amphotericin B who develop decreased renal function and abnormal urine sediment” value in data set [1] is “over 80%”.

On to candicidin, for which the RBC hemolysis in data set [2] is reported as 75%. In addition, in the data set with various fungi, the “antifungal activity compared with amphotericin B” value is recorded as “much higher antifungal activity than amphotericin B”. Further, the water solubility entry in data set [3] was “totally water insoluble”. Further, the “toxicity on oral administration” value in the data set with humans was “without any toxicity”.
